Reference: patent US7785577B2, “Peptides or peptidic conjugate derivatives of MSH and the use thereof for cosmetically fighting against canities” (Institut Europeen de Biologie Cellulaiare, priority 2004, dated 2010)
Non-standard residues stand in square brackets, D forms with d. Residues, ends and D or L forms follow the SMILES beside them. *: point of attachment. Palmitoyl = CCCCCCCCCCCCCCCC(=O)*; Nle = CCCC[C@H](N)C(=O)O

Target: T1, melanocortin-1 receptor MClr (Homo sapiens, UniProt Q01726)
T1 construct: The cells used to test MClr were human melanocytes; endogenous in cells; host or cells: human melanocytes
T1 sequence (Q01726 whole entry): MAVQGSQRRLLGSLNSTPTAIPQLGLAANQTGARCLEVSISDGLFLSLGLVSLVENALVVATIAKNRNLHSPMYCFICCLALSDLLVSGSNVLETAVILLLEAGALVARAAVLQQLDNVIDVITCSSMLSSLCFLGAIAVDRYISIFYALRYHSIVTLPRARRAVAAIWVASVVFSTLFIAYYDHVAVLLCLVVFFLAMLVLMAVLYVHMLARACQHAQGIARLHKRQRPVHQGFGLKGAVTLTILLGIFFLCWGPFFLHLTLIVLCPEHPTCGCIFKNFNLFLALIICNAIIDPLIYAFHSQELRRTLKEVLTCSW
Assay: Melanogenesis stimulation test: quantification of second messenger cAMP
Assay type: cell-based
Description: Test: Study of the quantification of a second messenger: cAMP
When an agonist binds to this receptor, it leads to activation of a molecule, adenylate cyclase, which produces cAMP. Quantifying cAMP makes it possible to evaluate the affinity of a ligand for its receptor.
Protocol: The cells used to test MClr were human melanocytes.
EC50 is the ligand concentration giving 50% of maximum stimulation.

SMILES	EC50
CCCC[C@H](NC(C)=O)C(=O)N[C@@H](C)C(=O)N[C@@H](CCCNC(=N)N)C(=O)N[C@H](Cc1ccccc1)C(=O)N[C@@H](CCCNC(=N)N)C(=O)N[C@@H](Cc1c[nH]c2ccccc12)C(N)=O [Conjugate no. 2, Ac-Nle-Ala-Arg-DPhe-Arg-Trp-NH2] (Ac-[Nle]AR[dF]RW-NH2)	0.6 nM
CCCCCCCCCCCCCCCC(=O)N[C@@H](CCCC)C(=O)N[C@@H](C)C(=O)N[C@@H](Cc1c[nH]cn1)C(=O)N[C@H](Cc1ccccc1)C(=O)N[C@@H](CCCNC(=N)N)C(=O)N[C@@H](Cc1c[nH]c2ccccc12)C(N)=O [Conjugate no. 13, Palm-Nle-Ala-His-DPhe-Arg-Trp-NH2] (Palmitoyl-[Nle]AH[dF]RW-NH2)	1.6 nM
